Experimental data taken from article PMC3475717, “A Spiroligomer α-Helix Mimic That Binds HDM2, Penetrates Human Cells and Stabilizes HDM2 in Cell Culture” (PLoS ONE, 2012).

target: T1, HDM2_25–117 (Homo sapiens, UniProt Q00987); assay: direct binding fluorescence polarization assay; settings: fluorescein labeled ligand at 10 nM, varying HDM2; read-out: Kd (HDM2/MDM2)
T1 construct: unnamed fusion partner ('fusion protein'); made in house; host or cells: E. coli BL21
Experimental: To measure the binding affinity of the functionalized spiroligomers to HDM2 we utilized a direct binding fluorescence polarization assay. The binding of the fluorescein labeled spiroligomers was measured at 10 nM spiroligomer in the presence of varying concentrations of HDM2_25–117 [31]. […] The initial screen of spiroligomers including 3–7 was carried out on the spiroligomer backbone containing all (S) stereochemistry to identify appropriate functional groups to mimic the side chains of Phe19, Trp23 and Leu26 of the p53 helix.
HDM2 Protein Expression. A fusion protein consisting of residues 1-140 (the plasmid was a generous gift from the lab of Neil Zondlo, University of Delaware) was prepared by over-expression.4 Plasmids were used to transform chemically competent E-coli BL21 Cells (Novagen), and a single colony was used to inoculate 2×4 mL LB media culture tubes containing 0.1 mg/mL ampicillin, at 37 °C overnight. These overnight cultures were used to inoculate a 1 L culture of TB media containing 0.1 mg/ml ampicillin. The culture was incubated at 37 °C with shaking at 250 rpm until the optical density at 600 nm reached to 0.9 absorbance units. Protein overexpression was then induced by the addition of 20% isopropyl β-D-thiogalactoside (IPTG) to 0.4 mM final concentration. The culture was then grown for additional 5 hours at 30 °C. Then cells were harvested at 4 °C by centrifugation at 4500 rpm for 20 min.
The cell pellet was resuspended in chilled 1x Binding Buffer (0.5 M NaCl, 20 mMTris-Hcl, 5 mM imidazole, pH 7.9), frozen and stored at -80 °C until protein purification.
Protein Purification. The frozen cell pellet was thawed at 4 °C and lysed by sonication for 2 minutes with 10 sec on and 20 sec off. Cell debris was pelleted by centrifugation for 30 min at 15000 g, 4 °C and the supernatant was filtered through a 0.2 μm syringe filter. A column was prepared using 2 mL Novagen His-Bind suspended resin and resin was washed with 3 volumes DI water. The flow rate maintained was not more than 0.5 ml/min throughout the purification.
The resin was charged with 5 vol 1x Charge Buffer (50 mM NiSO4) and then equilibrated with 3 vol 1x Binding Buffer (5 mM imidazole). After loading the column with prepared extract, the resin was washed with 10 vol 1x Binding Buffer and then with 6 vol 1x Wash Buffer (10 mM imidazole). Protein was then eluted with 6 vol 1x Elution Buffer (1 M imidazole). The eluate was captured in fractions of 0.5 ml. Fractions were assayed with Coomasie blue and desired fractions were combined and dialyzed using spectra/por 6 Dialysis Membranes of 10,000 MWCO (Spectrum Laboratories) in PBS (pH 7.4, 5 mM EDTA and 0.5 mM DTT) for overnight.
The resulting protein was characterized by SDS-PAGE (4-20% gradient gel) for purity analysis and concentrations were measured by UV analysis.
Fresh protein was used immediately for protein binding experiments. […]
Direct Binding Fluorescence Polarization Experiments. Fluorescence polarization experiments were undertaken to assess the ability of spiroligomers to bind HDM2, a protein with hydrophobic cleft that binds the p53 N-terminal helical domain. Fluoresceinated oligomers (conc. of 10 nM) were incubated for 30 minutes at room temperature with sequential dilutions of […]

T1 sequence (Q00987 25-117): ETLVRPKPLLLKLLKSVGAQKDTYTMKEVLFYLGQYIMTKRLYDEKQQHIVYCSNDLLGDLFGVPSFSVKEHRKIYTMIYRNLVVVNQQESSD

| Compound | Kd [µM] |
| --- | --- |
| CC(C)CN1C(=O)[C@@H]2C[C@@]3(CN2C(=O)[C@@]12C[C@H]1C(=O)N(Cc4ccc(Cl)c(Cl)c4)[C@]4(C[C@H]5C(=O)N[C@@H](CCc6ccccc6)C(=O)N5C4)C(=O)N1C2)NC(=O)[C@@H](CCCCNC(=S)Nc1ccc2c(c1)C(=O)OC21c2ccc(O)cc2Oc2cc(O)ccc21)NC3=O [Compound 12] | 1.6 |
| CC(C)CCN1C(=O)[C@@H]2C[C@@]3(CN2C(=O)[C@@]12C[C@H]1C(=O)N(Cc4ccc(Cl)c(Cl)c4)[C@]4(C[C@H]5C(=O)N[C@@H](Cc6ccccc6)C(=O)N5C4)C(=O)N1C2)NC(=O)[C@H](CCCCNC(=S)Nc1ccc2c(c1)C(=O)OC21c2ccc(O)cc2Oc2cc(O)ccc21)NC3=O [Compound 5] | 6.3 |
| CC(C)CN1C(=O)[C@@H]2C[C@@]3(CN2C(=O)[C@@]12C[C@H]1C(=O)N(Cc4cccc5ccccc45)[C@]4(C[C@H]5C(=O)N[C@@H](Cc6ccccc6)C(=O)N5C4)C(=O)N1C2)NC(=O)[C@H](CCCCNC(=S)Nc1ccc2c(c1)C(=O)OC21c2ccc(O)cc2Oc2cc(O)ccc21)NC3=O [Compound S10] | 16 |

The next lines start with the values.

| Kd [µM] | Compound |
| --- | --- |
| 6.7 | CC(C)CN1C(=O)[C@@H]2C[C@@]3(CN2C(=O)[C@@]12C[C@H]1C(=O)N(Cc4ccc(Cl)c(Cl)c4)[C@]4(C[C@@H]5C(=O)N[C@@H](CCc6ccccc6)C(=O)N5C4)C(=O)N1C2)NC(=O)[C@H](CCCCNC(=S)Nc1ccc2c(c1)C(=O)OC21c2ccc(O)cc2Oc2cc(O)ccc21)NC3=O [Compound 9] |
| 4.6 | CC(C)CN1C(=O)[C@@H]2C[C@@]3(CN2C(=O)[C@@]12C[C@H]1C(=O)N(Cc4ccc(Cl)c(Cl)c4)[C@@]4(C[C@H]5C(=O)N[C@H](CCc6ccccc6)C(=O)N5C4)C(=O)N1C2)NC(=O)[C@@H](CCCCNC(=S)Nc1ccc2c(c1)C(=O)OC21c2ccc(O)cc2Oc2cc(O)ccc21)NC3=O [Compound 11] |
| 4.8 | CC(C)CN1C(=O)[C@@H]2C[C@@]3(CN2C(=O)[C@@]12C[C@H]1C(=O)N(Cc4ccc(Cl)c(Cl)c4)[C@@]4(C[C@@H]5C(=O)N[C@H](CCc6ccccc6)C(=O)N5C4)C(=O)N1C2)NC(=O)[C@@H](CCCCNC(=S)Nc1ccc2c(c1)C(=O)OC21c2ccc(O)cc2Oc2cc(O)ccc21)NC3=O [Compound 10] |
| 23 | CC(C)CN1C(=O)[C@@H]2C[C@@]3(CN2C(=O)[C@@]12C[C@H]1C(=O)N(Cc4ccc(Cl)c(Cl)c4)[C@@]4(C[C@H]5C(=O)N[C@H](CCc6ccccc6)C(=O)N5C4)C(=O)N1C2)NC(=O)[C@H](CCCCNC(=S)Nc1ccc2c(c1)C(=O)OC21c2ccc(O)cc2Oc2cc(O)ccc21)NC3=O [Compound 8] |
